Laboratory results: patent US11866450B2, “Modulators of Cystic Fibrosis Transmembrane Conductance regulator, pharmaceutical compositions, methods of treatment, and process for making the modulators” (priority 2018, dated 2024)
pEC50: −log10 of the molar value. Like-named read-outs stand apart in the source and are kept apart here.

Key:
[1] = biological target: CFTR-mediated chloride transport (Homo sapiens, UniProt P13569); assay type: cell-based; details: enteroid cells incubated with test compound 18-24 hours, acute 10 μM forskolin and 300 nM Compound III; for Max. Activity: % of chloride transport with 3 μM Compound A, 3 μM Compound II and 300 nM acute Compound III triple combination control
Procedure, shortened: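 Membrane-potential fluorescence AUC over 15 min quantified CFTR chloride transport after acute forskolin (10 μM), IBMX (100 μM) and Compound III (300 nM) in chloride-free buffer. Human enteroid cells were pretreated with compound for 18–24 h; % Activity is relative to 3 μM Compound A + 3 μM Compound II + 300 nM Compound III.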

[2] = snar bond

CFTR-mediated chloride transport, sequence (P13569 whole entry, looked up): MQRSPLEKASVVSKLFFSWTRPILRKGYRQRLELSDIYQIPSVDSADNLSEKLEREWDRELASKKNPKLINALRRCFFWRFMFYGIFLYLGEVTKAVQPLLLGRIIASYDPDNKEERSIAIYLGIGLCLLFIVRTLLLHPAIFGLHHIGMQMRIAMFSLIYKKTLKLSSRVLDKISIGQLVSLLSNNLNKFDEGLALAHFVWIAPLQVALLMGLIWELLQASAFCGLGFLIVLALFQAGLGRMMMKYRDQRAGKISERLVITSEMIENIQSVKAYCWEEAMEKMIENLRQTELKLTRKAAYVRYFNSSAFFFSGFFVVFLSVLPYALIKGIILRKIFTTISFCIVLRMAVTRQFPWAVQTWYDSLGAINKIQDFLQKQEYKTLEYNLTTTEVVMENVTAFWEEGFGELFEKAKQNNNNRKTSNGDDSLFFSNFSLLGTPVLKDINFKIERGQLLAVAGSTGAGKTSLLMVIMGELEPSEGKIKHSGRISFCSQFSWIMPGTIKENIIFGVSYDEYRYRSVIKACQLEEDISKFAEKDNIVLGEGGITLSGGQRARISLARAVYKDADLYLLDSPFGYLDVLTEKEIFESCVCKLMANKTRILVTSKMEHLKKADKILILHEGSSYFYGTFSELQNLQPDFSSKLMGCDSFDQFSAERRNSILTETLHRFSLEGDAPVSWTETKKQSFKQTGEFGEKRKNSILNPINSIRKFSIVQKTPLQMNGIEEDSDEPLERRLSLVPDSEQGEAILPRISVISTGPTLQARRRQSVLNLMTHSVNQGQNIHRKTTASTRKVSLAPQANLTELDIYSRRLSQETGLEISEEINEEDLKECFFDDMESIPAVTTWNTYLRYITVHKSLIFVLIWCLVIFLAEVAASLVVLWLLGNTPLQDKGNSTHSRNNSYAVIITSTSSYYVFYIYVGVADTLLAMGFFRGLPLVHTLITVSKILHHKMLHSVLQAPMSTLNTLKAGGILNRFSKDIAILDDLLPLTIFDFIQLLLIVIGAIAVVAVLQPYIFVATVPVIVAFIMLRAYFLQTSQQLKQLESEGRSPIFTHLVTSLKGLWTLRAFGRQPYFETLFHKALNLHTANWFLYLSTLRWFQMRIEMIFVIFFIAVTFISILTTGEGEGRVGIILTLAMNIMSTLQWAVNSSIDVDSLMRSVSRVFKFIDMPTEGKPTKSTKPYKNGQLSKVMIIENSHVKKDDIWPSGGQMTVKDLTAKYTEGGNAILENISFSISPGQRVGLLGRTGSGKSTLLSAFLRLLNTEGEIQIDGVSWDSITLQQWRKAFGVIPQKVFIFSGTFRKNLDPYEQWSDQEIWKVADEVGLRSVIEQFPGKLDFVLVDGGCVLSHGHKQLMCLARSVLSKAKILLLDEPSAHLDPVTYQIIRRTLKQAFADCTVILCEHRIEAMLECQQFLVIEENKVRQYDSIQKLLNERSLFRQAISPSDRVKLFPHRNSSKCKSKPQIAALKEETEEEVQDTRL

Structure (SMILES)	pEC50 [1]	Max. Activity [1]	other results
CC1(C)C[C@@H]2CCCNc3cccc(n3)S(=O)(=O)NC(=O)c3ccc(-n4ccc(OCCC(C)(C)C(F)(F)F)n4)nc3N1C2 [Compound 212, (14S)-12,12-Dimethyl-8-[3-(4,4,4-trifluoro-3,3-dimethylbutoxy)-1H-pyrazol-1-yl]-2λ^6-thia-3,9,11,18,23-pentaazatetracyclo[17.3.1.111,14.05,10]tetracosa-1(22),5,7,9,19(23),20-hexaene-2,2,4-trione]	> 6.00	+++ (+++ is >60%)	ring closure, yield after HPLC ([2]; from CC(C)(C)OC(=O)N1C[C@@H](CCCNc2cccc(S(=O)(=O)NC(=O)c3ccc(-n4ccc(OCCC(C)(C)C(F)(F)F)n4)nc3Cl)n2)CC1(C)C, 15-membered ring, K2CO3/CsF/3A MS, DMSO, 21.2 mM, 130.0 °C, 2 steps): 51%
CC1(C)C[C@H]2CCCNc3cccc(n3)S(=O)(=O)NC(=O)c3ccc(-n4ccc(OCCCC5(C(F)(F)F)CC5)n4)nc3N1C2 [Compound 190, (14R)-12,12-dimethyl-8-(3-{3-[1-(trifluoromethyl)cyclopropyl]propoxy}-1H-pyrazol-1-yl)-2λ^6-thia-3,9,11,18,23-pentaazatetracyclo[17.3.1.111,14.05,10]tetracosa-1(23),5,7,9,19,21-hexaene-2,2,4-trione]	> 6.00	++ (++ is 30-60%)	ring closure, yield after HPLC ([2]; from CC1(C)CC(CCCNc2cccc(S(=O)(=O)NC(=O)c3ccc(-n4ccc(OCCCC5(C(F)(F)F)CC5)n4)nc3Cl)n2)CN1, 15-membered ring, K2CO3/CsF/4A MS, DMSO, 102.3 mM, 150.0 °C, 2 steps): 49%
CC1(C)CC2CCNc3cccc(n3)S(=O)(=O)NC(=O)c3ccc(-n4ccc(OCC5(C(F)(F)F)CC5)n4)nc3N1C2 (stereo not drawn) [Compound 4, 7,7-dimethyl-11-(3-{[1-(trifluoromethyl)cyclopropyl]methoxy}-1H-pyrazol-1-yl)-17λ^6-thia-2,8,10,16,22-pentaazatetracyclo[16.3.1.1(5,8).0(9,14)]tricosa-1(21),9(14),10,12,18(22),19-hexaene-15,17,17-trione]	> 6.00	+++ (+++ is >60%)	ring closure, yield after HPLC ([2]; from CC1(C)CC(CCNc2cccc(S(=O)(=O)NC(=O)c3ccc(-n4ccc(OCC5(C(F)(F)F)CC5)n4)nc3Cl)n2)CN1, 14-membered ring, K2CO3, DMSO, 210.5 mM, 125.0 °C, 112.0 h, 2 steps): 9%
CC1(C)CC2CCCOc3ccc(cn3)S(=O)(=O)NC(=O)c3ccc(-n4ccc(OCCC5(C(F)(F)F)CC5)n4)nc3N1C2 (stereo not drawn) [Compound 90, 12,12-dimethyl-8-(3-{2-[1-(trifluoromethyl)cyclopropyl]ethoxy}-1H-pyrazol-1-yl)-18-oxa-2λ^6-thia-3,9,11,20-tetraazatetracyclo[17.2.2.111,14.05,10]tetracosa-1(21),5(10),6,8,19,22-hexaene-2,2,4-trione]	> 6.00	++ (++ is 30-60%)	ring closure, yield after HPLC ([2]; from CC(C)(C)OC(=O)N1CC(CCCOc2ccc(S(=O)(=O)NC(=O)c3ccc(-n4ccc(OCCC5(C(F)(F)F)CC5)n4)nc3Cl)cn2)CC1(C)C, 16-membered ring, HCl (Boc off), K2CO3/CsF/3A MS, DMSO, 61.4 mM, 155.0 °C, 2 steps): 7%
CC1(C)CC2CCCn3ccc(n3)S(=O)(=O)NC(=O)c3ccc(-n4ccc(OCCCC5(C(F)(F)F)CC5)n4)nc3N1C2 (racemic) [Compound 155, 20,20-Dimethyl-4-(3-{3-[1-(trifluoromethyl)cyclopropyl]propoxy}-1H-pyrazol-1-yl)-10λ^6-thia-1,3,9,14,22-pentaazatetracyclo[16.2.1.111,14.02,7]docosa-2(7),3,5,11(22),12-pentaene-8,10,10-trione]	> 6.00	+++ (+++ is >60%)	ring closure, yield after HPLC ([2]; from CC1(C)CC(CCCn2ccc(S(=O)(=O)NC(=O)c3ccc(-n4ccc(OCCCC5(C(F)(F)F)CC5)n4)nc3Cl)n2)CN1, 14-membered ring, K2CO3/CsF/3A MS, DMSO, 49.7 mM, 140.0 °C, 16.0 h, 2 steps): 51%
CC1(C)C[C@@H]2CCCn3ccc(n3)S(=O)(=O)NC(=O)c3ccc(-n4ccc(OCCC(C)(C)C(F)(F)F)n4)nc3N1C2 [Compound 221, (18S)-20,20-Dimethyl-4-[3-(4,4,4-trifluoro-3,3-dimethylbutoxy)-1H-pyrazol-1-yl]-10λ^6-thia-1,3,9,14,22-pentaazatetracyclo[16.2.1.111,14.02,7]docosa-2,4,6,11(22),12-pentaene-8,10,10-trione]	> 6.00	+++ (+++ is >60%)	ring closure, yield after HPLC ([2]; from CC(C)(C)OC(=O)N1C[C@@H](CCCn2ccc(S(=O)(=O)NC(=O)c3ccc(-n4ccc(OCCC(C)(C)C(F)(F)F)n4)nc3Cl)n2)CC1(C)C, 14-membered ring, K2CO3/CsF/3A MS, DMSO, 22.0 mM, 130.0 °C, 2 steps): 21%
CC(C)COc1cc(F)cc(-c2ccc3c(n2)N2C[C@@H](CCCNc4cccc(n4)S(=O)(=O)NC3=O)CC2(C)C)c1 [Compound 224, (14S)-8-[3-Fluoro-5-(2-methylpropoxy)phenyl]-12,12-dimethyl-2λ^6-thia-3,9,11,18,23-pentaazatetracyclo[17.3.1.111,14.05,10]tetracosa-1(22),5,7,9,19(23),20-hexaene-2,2,4-trione]	> 6.00	+++ (+++ is >60%)	ring closure, yield after HPLC ([2]; from CC(C)COc1cc(F)cc(-c2ccc(C(=O)NS(=O)(=O)c3cccc(NCCC[C@@H]4CN(C(=O)OC(C)(C)C)C(C)(C)C4)n3)c(Cl)n2)c1, 15-membered ring, K2CO3/CsF/3A MS, DMSO, 30.6 mM, 150.0 °C, 2 steps): 14%
CC1(C)CC2CN1c1nc(-n3ccc(OCCC4(C(F)(F)F)CC4)n3)ccc1C(=O)NS(=O)(=O)c1ccnn1CCO2 (stereo not drawn) [Compound 152, 21,21-dimethyl-4-(3-{2-[1-(trifluoromethyl)cyclopropyl]ethoxy}-1H-pyrazol-1-yl)-18-oxa-10λ^6-thia-1,3,9,14,15-pentaazatetracyclo[17.2.1.02,7.011,15]docosa-2(7),3,5,11,13-pentaene-8,10,10-trione]	< 5.52	+ (+ is <30%)	ring closure, yield after HPLC ([2]; from CC(C)(C)OC(=O)N1CC(OCCn2ccc(S(=O)(=O)NC(=O)c3ccc(-n4ccc(OCCC5(C(F)(F)F)CC5)n4)nc3Cl)n2)CC1(C)C, 13-membered ring, K2CO3/CsF/3A MS, DMSO, 62.0 mM, 140.0 °C, 2 steps): 34%
CC1(C)CC2CN1c1nc(-n3ccc(OCCC4(C(F)(F)F)CC4)n3)ccc1C(=O)NS(=O)(=O)c1cccc(n1)N2 (stereo not drawn) [Compound 31, 5,5-dimethyl-9-(3-{2-[1-(trifluoromethyl)cyclopropyl]ethoxy}-1H-pyrazol-1-yl)-15λ^6-thia-2,6,8,14,20-pentaazatetracyclo[14.3.1.13,6.07,12]henicosa-1(20),7,9,11,16,18-hexaene-13,15,15-trione]	< 5.52	+ (+ is <30%)	ring closure, yield after HPLC ([2]; from 2-chloro-N-[[6-[(5,5-dimethylpyrrolidin-3-yl)amino]-2-pyridyl]sulfonyl]-6-[3-[2-[1-(trifluoromethyl)cyclopropyl]ethoxy]pyrazol-1-yl]pyridine-3-carboxamide (dihydrochloride salt), 12-membered ring, K2CO3/CsF/4A MS, DMSO, 10.5 mM, 150.0 °C): 37%
CC1(C)C[C@@H]2CCCNc3cccc(n3)S(=O)(=O)NC(=O)c3ccc(C4=CCCCO4)nc3N1C2 [Compound 303, (14S)-8-(3,4-dihydro-2H-pyran-6-yl)-12,12-dimethyl-2λ^6-thia-3,9,11,18,23-pentaazatetracyclo[17.3.1.111,14.05,10]tetracosa-1(22),5,7,9,19(23),20-hexaene-2,2,4-trione]	> 6.00	+++ (+++ is >60%)	ring closure, yield after HPLC ([2]; from CC1(C)C[C@H](CCCNc2cccc(S(=O)(=O)NC(=O)c3ccc(C4=CCCCO4)nc3Cl)n2)CN1, 15-membered ring, K2CO3, NMP, 25.7 mM, 180.0 °C): 3%
CC(C)C(COc1ccn(-c2ccc3c(n2)N2CC(CCCNc4cccc(n4)S(=O)(=O)NC3=O)CC2(C)C)n1)C(C)C (stereo not drawn) [Compound 220, 12,12-Dimethyl-8-{3-[3-methyl-2-(propan-2-yl)butoxy]-1H-pyrazol-1-yl}-2λ^6-thia-3,9,11,18,23-pentaazatetracyclo[17.3.1.111,14.05,10]tetracosa-1(23),5(10),6,8,19,21-hexaene-2,2,4-trione]	> 6.00	+++ (+++ is >60%)	ring closure, yield after HPLC ([2]; from CC(C)C(COc1ccn(-c2ccc(C(=O)NS(=O)(=O)c3cccc(NCCCC4CCC(C)(C)N4C(=O)OC(C)(C)C)n3)c(Cl)n2)n1)C(C)C, 15-membered ring, K2CO3/CsF/3A MS, DMSO, 83.8 mM, 140.0 °C, 2 steps): 39%
CC1(C)CC2CN1c1nc(-n3ccc(OCCC(C4CC4)C4CC4)n3)ccc1C(=O)NS(=O)(=O)c1cccc(n1)NCCO2 (racemic) [Compound 156, 8-[3-(3,3-Dicyclopropylpropoxy)-1H-pyrazol-1-yl]-12,12-dimethyl-15-oxa-2λ^6-thia-3,9,11,18,23-pentaazatetracyclo[17.3.1.111,14.05,10]tetracosa-1(23),5,7,9,19,21-hexaene-2,2,4-trione]	> 6.00	+++ (+++ is >60%)	ring closure, yield after HPLC ([2]; from CC1(C)CC(OCCNc2cccc(S(=O)(=O)NC(=O)c3ccc(-n4ccc(OCCC(C5CC5)C5CC5)n4)nc3Cl)n2)CN1, 15-membered ring, K2CO3/CsF/3A MS, DMSO, 121.6 mM, 150.0 °C): 30%
CC1(C)CC2CN1c1nc(-n3ccc(OCCCC4(C(F)(F)F)CC4)n3)ccc1C(=O)NS(=O)(=O)c1cccc(n1)NCCO2 (stereo not drawn) [Compound 157]	> 6.00	+++ (+++ is >60%)	ring closure, yield after HPLC ([2]; from CC1(C)CC(OCCNc2cccc(S(=O)(=O)NC(=O)c3ccc(-n4ccc(OCCCC5(C(F)(F)F)CC5)n4)nc3Cl)n2)CN1, 15-membered ring, K2CO3/CsF/4A MS, DMSO, 105.0 mM, 150.0 °C): 34%
